Experimental findings from US20230321189A1, “THERAPEUTIC AGENTS, PHARMACEUTICAL COMPOSITIONS, AND ASSOCIATED BIOMARKERS BASED ON TRK-B” (INSTITUTO DE MEDICINA MOLECULAR JOÃO LOBO ANTUNES, priority 2020, published 2023) are described below.

The subject of series [1] is hippocampal synaptosomes. As to the kind of experiment: [3H]glutamate release from hippocampal synaptosomes. Format: cell-based, rat. The conditions noted are these: BDNF 30 ng/ml. On the procedure:
Isolation of Synaptosomes. The synaptosomal fraction from rat hippocampi was prepared as routinely in the lab^3. Hippocampal slices (male Wistar rats, 7-10 weeks old) were prepared and treated with vehicle or Aβ1-42, as described above. Then, slices were added to 5 ml of ice-cold isosmotic sucrose solution (0.32 M, containing 1 mM EDTA, 1 mg/ml BSA, 10 mM HEPES, pH 7.4), and homogenized in a Potter-Elvehjem homogenizer with a Teflon piston (four up-and-down strokes) and the volume completed to 10 ml with the sucrose solution. After a first centrifugation at 3,000 g for 10 min (Heraeus sepatech—Biofuge 28RS centrifuge with 3746 rotor), the supernatant was collected and centrifuged at 14,000 g for 12 min. The whole procedure was conducted at 4° C. The pellet was resuspended in 1 ml 45% Percoll in KHR solution consisting of (in mM) NaCl 140, EDTA 1, HEPES 10, KCl 5, and glucose 5, and centrifuged at 16,000 g for 2 min. The synaptosomal fraction corresponds to the top buoyant layer and was collected from the tube. Percoll was removed by two washes with 1 ml KHR solution centrifuged at 16,000 g for 2 min each; synaptosomes were then kept on ice and used within 3 hours. The synaptosomal protein concentration was assayed using the Bio-Rad DC™ protein assay and BSA as standard.
[^3H]Glutamate Release from Hippocampal Synaptosomes. [3H]Glutamate release from hippocampal synaptosomes was performed as routinely in the lab^39. […]
Calculation of drug effects on glutamate release. At the end of each experiment, aliquots (500 μl) of each sample as well as the filters from each superfusion chamber were analyzed by liquid scintillation counting. The fractional release was expressed as the percentage of total radioactivity present in the synaptosomes at each time point. The amount of radioactivity released by each pulse of K^+ (S1 and S2) was calculated by integration of the area of the peak upon subtraction of the estimated basal tritium release. […]

Series [2] deals with hippocampal slices. As to the kind of experiment: θ-burst Long-Term Potentiation (LTP) in acute hippocampal slices. Format: cell-based, rat. From the text:
Young adult (7-10 weeks old) male Wistar rats were sacrificed by decapitation under deep isoflurane anaesthesia. The brain was quickly removed, hemisected and both hippocampi were dissected free within ice-cold artificial cerebrospinal fluid (aCSF) (mM: NaCl 124; KCl 3; NaH2PO4 1.25; NaHCO326; MgSO4 1; CaCl2 2; and glucose 10), previously gassed with 95% O2 and 5% CO2, pH 7.4.
Slices (400 μm-thick) were cut perpendicularly to the long axis of the hippocampus with a McIlwain tissue chopper and allowed to recover for at least 60 min in a resting chamber, filled with the gassed aCSF, at room temperature (RT) (22-24° C.).
Hippocampal slices were incubated with vehicle or Aβ1-42 (200 nM) species (monomers, oligomers or fibrils) for 3 h at RT in gassed aCSF. We chose to perform slice incubation at RT, to avoid neuronal damage by hypoxic injury^27.
Slices were transferred to a submerging chamber (1 ml) and continuously superfused at a3 ml/min rate with gassed aCSF at 32° C. Perfusion tubes were coated with 0.1 mg/ml BSA prior to experiments to avoid adsorption of BDNF to the tubes^35. Evoked field excitatory postsynaptic potentials (fEPSP) were recorded extracellularly through a microelectrode filled with 4 M NaCl (2-8 MΩ resistance) placed in the stratum radiatum of the CA1 area, as previously described^34,35. One pathway of the Schaffer collateral/commissural fibers was stimulated (rectangular pulses of 0.1 ms duration) at every 15 s (for V/O curves, basal synaptic transmission and Paired-Pulse Facilitation (PPF) recordings) or every 20 s (for LTP recordings), by a bipolar concentric wire electrode placed on the Schaffer fibers in the stratum radiatum, in the CA1 area. The initial intensity of the stimulus was adjusted to obtain a submaximal fEPSP slope with a minimum population spike contamination, near one-fifth of the fEPSP slope obtained with supramaximal stimulation. The averages of eight consecutive fEPSPs were obtained and the slope of the initial phase of the potential was quantified. Recordings were obtained with an Axoclamp 2B amplifier (Axon Instruments, Foster City, CA), digitized and continuously stored on a personal computer with the LTP program 3. All the protocols detailed below were started only after a stable baseline of at least 20 minutes.
Long-Term Potentiation induction and saturation. A weak LTP-inducing θ-burst protocol consisting of four trains of 100 Hz, four stimuli, separated by 200 ms was used (4×4)^34,37. The intensity of the stimulus was never changed. LTP magnitude was quantified as the normalized change in the average slope of the fEPSP taken from 50 to 60 min after LTP induction in relation to the average slope of the fEPSP measured during the 10 min that preceded the induction of LTP.
For the experiments in FIG. 2, Brain-Derived Neurotrophic Factor (BDNF, 30 ng/ml) was added to the superfusing solution 20 min before the induction of LTP. Controls for these experiments were performed in different slices, without BDNF superfusion, on the same day. Generally, when testing BDNF effect on synaptic plasticity, two independent pathways of the same hippocampal slice are used, one serving as test and the other as internal control^35,38. However, because in the present experimental design slices were previously exposed to vehicle/Aβ for 3 h, we chose to test BDNF effect in different slices from the same rats. […]

For “BDNF: Brain-derived Neurotrophic Factor, supplied by Regeneron Pharmaceuticals”, the “BDNF effect on glutamate release after Aβ1-42 monomeric or fibrillar species” value in series [1] (Aβ 200 nM monomers or fibrils, P<0.05) is reported as “preserved”. In series [1] (Aβ 200 nM oligomers, P>0.05), the “BDNF effect on glutamate release after Aβ1-42 oligomeric species” value is recorded as “impaired”. For the same substance, the “glutamate release, control conditions” value in series [1] (P<0.01) is on record as “boosted”. Moreover, in series [2] (BDNF 30 ng/ml), the “LTP magnitude, control conditions” value is listed as “boosted”. In addition, the “BDNF effect on LTP after Aβ1-42 monomeric or fibrillar species” value in series [2] (BDNF 30 ng/ml, Aβ 200 nM monomers or fibrils, P<0.05) is given as “preserved”. In addition, the “BDNF effect on LTP after Aβ1-42 oligomeric species” value in series [2] (BDNF 30 ng/ml, Aβ 200 nM oligomers, P>0.05) is “impaired”. Moreover, the “effect of exogenous BDNF on LTP in slices exposed to TAT-TrkB and Aβ oligomers” value in series [2] (BDNF 30 ng/ml, TAT-TrkB 20 μM, Aβ 200 nM, P>0.05) was “did not boost LTP further”.

Turning to “TrkB-Fc: recombinant human TrkB/Fc chimera, BDNF's scavenger [reference compound]”, in series [2] (TrkB-Fc 2 μg/ml superfused from 30 min before LTP induction, TAT-TrkB 20 μM, P<0.05), the “effect on LTP in slices exposed to Aβ oligomers and TAT-TrkB” value is recorded as “counteracts the effect of TAT-TrkB on LTP reestablishment”.
